# Like-named read-outs stand apart in the source and are kept apart here.
# Columns and labels:
# [1] = system: Penicillium verrucosum var. cyclopium (food isolate); test: Antifungal bioassay (MIC/MFC); type: cell-based
# Experimental: For the antifungal bioassays, six fungi were used: Aspergillus niger (ATCC 6275), Aspergillus fumigatus (ATCC 1022), Aspergillus versicolor (ATCC 11730), Penicillium funiculosum (ATCC 36839), Trichoderma viride (IAM 5061), and Penicillium verrucosum var. cyclopium (food isolate). The organisms were obtained from the Mycological Laboratory, Department of Plant Physiology, Institute for Biological Research “Siniša Stankovic”, Belgrade, Serbia. All experiments were performed in duplicate.
# [2] = system: Aspergillus versicolor (ATCC 11730); test: Antifungal bioassay (MIC/MFC); type: cell-based; settings: ATCC11730, A.v. (A. versicolor)
# Experimental: (§1) For the antifungal bioassays, six fungi were used: […] The organisms were obtained from the Mycological Laboratory, Department of Plant Physiology, Institute for Biological Research “Siniša Stankovic”, Belgrade, Serbia. All experiments were performed in duplicate.
# [3] = system: Penicillium funiculosum (ATCC 36839); test: Antifungal bioassay (MIC/MFC); type: cell-based; settings: Talaromyces funiculosus, ATCC36839; P.f. (P. funiculosum)
# Experimental: as §1
# [4] = system: Trichoderma viride (IAM 5061); test: Antifungal bioassay (MIC/MFC); type: cell-based; settings: T.v. (T. viride)
# Experimental: as §1
# [5] = system: Aspergillus fumigatus (ATCC 1022); test: Antifungal bioassay (MIC/MFC); type: cell-based; settings: ATCC1022, A.f. (A. fumigatus)
# Experimental: as §1
# A. ochraceus = test: Antifungal bioassay (MIC/MFC); type: cell-based; settings: A.o. (A. ochraceus)
# Experimental: as §1
# P. ochrochloron = test: Antifungal bioassay (MIC/MFC); type: cell-based; settings: for MIC: P.o. (P. ochrochloron; text: P. ochramensis); for MFC: P.o. (P. ochrochloron)
# Experimental: as §1
# [6] = system: Aspergillus niger (ATCC 6275); test: Antifungal bioassay (MIC/MFC); type: cell-based; settings: ATCC6275, A.n. (A. niger)
# Experimental: as §1
# P. aeruginosa = test: Antibacterial microdilution (MIC/MBC); type: cell-based; settings: Pseudomonas aeruginosa, P.a. (P. aeruginosa); for MIC: read-out: MIC
# Experimental: (§2) The synthesized compounds (Table 1) were evaluated for their antibacterial activity against a panel of eight species using a microdilution method with ampicillin and streptomycin as reference drugs. […] The order of activity can be presented as: 8 > 11 > 2 > 1 > 12 > 3 > 17 > 7 > 5 > 13 > 14 > 16 > 9 > 4 = 6 > 15 > 10. […] Cloacae. […] The most sensitive bacteria appeared to be En. cloacae, while E. coli was the most resistant one, followed by M. flavus.
# (§3) The following Gram-negative bacteria: Escherichia coli (ATCC 35210), Enterobacter cloacae (clinical isolate), Salmonella typhimurium (ATCC 13311), as well as Gram-positive bacteria: Listeria monocytogenes (NCTC 7973), Bacillus cereus (clinical isolate), and Staphylococcus aureus (ATCC 6538) were used. The organisms were obtained from the Mycological Laboratory, Department of Plant Physiology, Institute for Biological Research “Siniša Stankovic”, Belgrade, Serbia. The minimum inhibitory (MIC) and minimum bactericidal (MBC) concentrations were determined by the modified microdilution method, as previously reported.
# M. flavus = test: Antibacterial microdilution (MIC/MBC); type: cell-based; settings: Micrococcus flavus; M.f. (M. flavus)
# Experimental: as §2, §3
# [7] = system: Enterobacter cloacae (clinical isolate); test: Antibacterial microdilution (MIC/MBC); type: cell-based; settings: Enterobacter cloacae, En.cl (En. cloacae); for MIC: read-out: MIC
# Experimental: as §2, §3
# [8] = system: Escherichia coli (ATCC 35210); test: Antibacterial microdilution (MIC/MBC); type: cell-based; settings: E. coli
# Experimental: as §2, §3
# [9] = system: Bacillus cereus (clinical isolate); test: Antibacterial microdilution (MIC/MBC); type: cell-based; settings: B.c. (B. cereus)
# Experimental: as §2, §3
# [10] = system: Salmonella typhimurium (ATCC 13311); test: Antibacterial microdilution (MIC/MBC); type: cell-based; settings: S.t. (S. typhimurium)
# Experimental: as §2, §3
# [11] = system: Staphylococcus aureus (ATCC 6538); test: Antibacterial microdilution (MIC/MBC); type: cell-based; settings: S.a. (S. aureus)
# Experimental: as §2, §3
# [12] = system: Listeria monocytogenes (NCTC 7973); test: Antibacterial microdilution (MIC/MBC); type: cell-based; settings: Listeria monocytogenes, NCTC7973, L.m. (L. monocytogenes); for MIC: read-out: MIC
# Experimental: as §2, §3
# [13] = Trichoderma viride, IAM5061, read-out: MIC
# [14] = Aspergillus ochraceus, read-out: MIC
# [15] = Penicillium ochrochloron, read-out: MIC
# [16] = Escherichia coli, ATCC35210, read-out: MIC
# [17] = Salmonella enterica, read-out: MIC
# [18] = Staphylococcus aureus, ATCC6538
# [19] = Staphylococcus aureus, ATCC6538, read-out: MIC
SMILES,melting point [°C],MFC [1] [µg/mL],MIC [1] [µg/mL],MFC [2] [µg/mL],MIC [2] [µg/mL],MFC [3] [µg/mL],MIC [3] [µg/mL],"MFC ([4]; Trichoderma viride, IAM5061) [µg/mL]","MIC [4, 13] [µg/mL]",MFC [5] [µg/mL],MIC [5] [µg/mL],MFC (A. ochraceus; Aspergillus ochraceus) [µg/mL],MFC (P. ochrochloron; Penicillium ochrochloron) [µg/mL],MIC (P. ochrochloron; [15]) [µg/mL],MFC [6] [µg/mL],MIC [6] [µg/mL],MBC (P. aeruginosa) [µg/mL],MIC (P. aeruginosa) [µg/mL],MBC (M. flavus) [µg/mL],MIC (M. flavus) [µg/mL],further results
"COC(=O)c1[nH]c2ccccc2c1/C=C1\SC(=S)N(CCCCCC(=O)O)C1=O [Compound 1, (Z)-6-(5-((2-(methoxycarbonyl)-1H-indol-3-yl)methylene)-4-oxo-2-thioxothiazolidin-3-yl)hexanoic acid]",135 to 138,60 ± 6,30 ± 10,60 ± 6,30 ± 10,30 ± 10,15 ± 3,30 ± 10,15 ± 3,120 ± 40,60 ± 6,15 ± 3,8 ± 0.6,4,30 ± 10,22 ± 5,60 ± 6,22 ± 5,30 ± 10,22 ± 5,"MIC (A. ochraceus): 8 ± 0.6 µg/mL; MIC (A. ochraceus; [14]): 8 µg/mL; MIC (P. ochrochloron): 4 ± 1 µg/mL; MBC [7]: 30 ± 10 µg/mL; MIC [7]: 22 ± 5 µg/mL; MIC [8]: 15 ± 9 µg/mL; MBC ([8]; Escherichia coli, ATCC35210): 30 ± 10 µg/mL; MIC [8, 16]: 15 µg/mL; MIC [9]: 15 ± 9 µg/mL; MBC ([9]; Bacillus cereus): 30 ± 10 µg/mL; MIC ([9]; Bacillus cereus, read-out: MIC): 15 µg/mL; MIC [10]: 15 ± 9 µg/mL; MBC ([10]; Salmonella enterica): 30 ± 10 µg/mL; MIC [10, 17]: 15 µg/mL; MBC [11, 18]: 30 ± 10 µg/mL; MIC [11, 19]: 22 ± 5 µg/mL; MBC [12]: 60 ± 6 µg/mL; MIC [12]: 22 ± 4 µg/mL"
"COC(=O)c1[nH]c2ccccc2c1/C=C1\SC(=S)N(c2ccc(C(=O)O)cc2)C1=O [Compound 2, (Z)-4-(5-((2-(methoxycarbonyl)-1H-indol-3-yl)methylene)-4-oxo-2-thioxothiazolidin-3-yl)benzoic acid]",294 to 295,60 ± 6,30 ± 10,30 ± 10,15 ± 3,30 ± 10,15 ± 3,15 ± 3,8 ± 0.6,60 ± 6,30 ± 10,15 ± 3,30 ± 10,15 ± 3,30 ± 10,22 ± 5,60 ± 6,30 ± 10,30 ± 10,22 ± 5,"MBC [7]: 30 ± 10 µg/mL; MIC [7]: 15 ± 9 µg/mL; MBC ([8]; Escherichia coli, ATCC35210): 30 ± 10 µg/mL; MIC [8, 16]: 22 ± 5 µg/mL; MIC [9]: 15 ± 9 µg/mL; MBC ([9]; Bacillus cereus): 30 ± 10 µg/mL; MIC ([9]; Bacillus cereus, read-out: MIC): 15 µg/mL; MBC ([10]; Salmonella enterica): 30 ± 10 µg/mL; MIC [10, 17]: 22 ± 5 µg/mL; MIC [11]: 15 ± 9 µg/mL; MBC [11, 18]: 30 ± 10 µg/mL; MIC [11, 19]: 15 µg/mL; MBC [12]: 60 ± 6 µg/mL; MIC [12]: 30 ± 10 µg/mL"
"COC(=O)c1[nH]c2ccccc2c1/C=C1\SC(=S)N(CCCN2CCOCC2)C1=O [Compound 5, (Z)-methyl 3-((3-(3-morpholinopropyl)-4-oxo-2-thioxothiazolidin-5-ylidene)methyl)-1H-indole-2-carboxylate]",213 to 214,30 ± 10,15 ± 3,15 ± 3,8 ± 0.6,30 ± 10,15 ± 3,8 ± 0.6,4,120 ± 40,60 ± 6,15 ± 3,15 ± 3,110 ± 10,30 ± 10,15 ± 3,60 ± 6,30 ± 10,60 ± 6,45 ± 3,"MIC [4]: 4 ± 1 µg/mL; MIC (A. ochraceus; [14]): 8 ± 0.6 µg/mL; MBC [7]: 30 ± 10 µg/mL; MIC [7]: 15 ± 9 µg/mL; MBC ([8]; Escherichia coli, ATCC35210): 60 ± 6 µg/mL; MIC [8, 16]: 30 ± 10 µg/mL; MBC ([9]; Bacillus cereus): 60 ± 6 µg/mL; MIC ([9]; Bacillus cereus, read-out: MIC): 30 ± 10 µg/mL; MBC ([10]; Salmonella enterica): 30 ± 10 µg/mL; MIC [10, 17]: 22 ± 5 µg/mL; MIC [11]: 15 ± 9 µg/mL; MBC [11, 18]: 30 ± 10 µg/mL; MIC [11, 19]: 15 µg/mL; MBC [12]: 60 ± 6 µg/mL; MIC [12]: 30 ± 10 µg/mL"
